Assay results from US20250215013A1, “SUBSTITUTED TRICYCLIC COMPOUNDS AS PARP INHIBITORS AND THE USE THEREOF” (IMPACT THERAPEUTICS (SHANGHAI), INC., priority 2022, published 2025).

Key:
[1] = target: PDE3A (Homo sapiens (Human), UniProt Q14432); assay: PDE3A fluorescence polarization (FP) assay; assay type: biochemical; settings: PDE3A enzyme activity, FAM-cAMP substrate
[2] = system: MDA-MB-436 cells; assay: Growth inhibition assay against BRCA mutant human breast cancer MDA-MB-436 cell line (CCK-8); assay type: cell-based; settings: proliferation of MDA-MB-436 cells, 7 days
[3] = target: recombinant poly(ADP-ribose) polymerase 2 (PARP2); assay: PARP2 chemiluminescent assay; assay type: biochemical; settings: inhibition of PARP2 enzyme activity, chemiluminescence
[4] = target: recombinant poly(ADP-ribose) polymerase 1 (PARP1) (Homo sapiens (Human), UniProt P09874)
Chain of recombinant poly(ADP-ribose) polymerase 1 (PARP1) (P09874 whole entry): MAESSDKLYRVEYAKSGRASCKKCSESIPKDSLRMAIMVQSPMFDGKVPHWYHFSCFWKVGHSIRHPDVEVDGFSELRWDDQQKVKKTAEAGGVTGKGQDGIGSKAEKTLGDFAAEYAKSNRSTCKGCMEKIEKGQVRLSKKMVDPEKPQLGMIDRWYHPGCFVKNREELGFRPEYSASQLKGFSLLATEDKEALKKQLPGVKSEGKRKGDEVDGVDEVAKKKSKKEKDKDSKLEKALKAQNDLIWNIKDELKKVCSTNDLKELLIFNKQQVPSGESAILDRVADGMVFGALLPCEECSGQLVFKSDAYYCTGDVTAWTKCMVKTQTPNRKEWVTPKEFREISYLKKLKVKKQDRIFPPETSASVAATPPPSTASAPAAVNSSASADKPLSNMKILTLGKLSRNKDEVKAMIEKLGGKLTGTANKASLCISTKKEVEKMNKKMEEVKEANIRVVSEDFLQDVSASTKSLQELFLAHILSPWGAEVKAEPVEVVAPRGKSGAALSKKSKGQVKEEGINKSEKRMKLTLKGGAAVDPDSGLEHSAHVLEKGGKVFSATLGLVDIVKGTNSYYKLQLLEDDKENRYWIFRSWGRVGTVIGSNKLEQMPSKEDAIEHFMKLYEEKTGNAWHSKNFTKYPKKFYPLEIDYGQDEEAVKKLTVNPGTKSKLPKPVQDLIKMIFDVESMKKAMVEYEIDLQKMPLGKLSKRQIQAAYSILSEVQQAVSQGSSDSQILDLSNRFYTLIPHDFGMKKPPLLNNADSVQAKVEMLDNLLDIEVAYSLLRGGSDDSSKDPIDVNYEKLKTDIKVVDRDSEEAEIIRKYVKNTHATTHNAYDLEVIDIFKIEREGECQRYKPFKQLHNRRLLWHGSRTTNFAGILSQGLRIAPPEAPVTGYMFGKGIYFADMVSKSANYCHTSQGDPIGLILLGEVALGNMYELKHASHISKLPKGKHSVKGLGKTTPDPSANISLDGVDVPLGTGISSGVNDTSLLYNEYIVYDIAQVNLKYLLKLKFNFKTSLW

Chain of PDE3A (Q14432 whole entry): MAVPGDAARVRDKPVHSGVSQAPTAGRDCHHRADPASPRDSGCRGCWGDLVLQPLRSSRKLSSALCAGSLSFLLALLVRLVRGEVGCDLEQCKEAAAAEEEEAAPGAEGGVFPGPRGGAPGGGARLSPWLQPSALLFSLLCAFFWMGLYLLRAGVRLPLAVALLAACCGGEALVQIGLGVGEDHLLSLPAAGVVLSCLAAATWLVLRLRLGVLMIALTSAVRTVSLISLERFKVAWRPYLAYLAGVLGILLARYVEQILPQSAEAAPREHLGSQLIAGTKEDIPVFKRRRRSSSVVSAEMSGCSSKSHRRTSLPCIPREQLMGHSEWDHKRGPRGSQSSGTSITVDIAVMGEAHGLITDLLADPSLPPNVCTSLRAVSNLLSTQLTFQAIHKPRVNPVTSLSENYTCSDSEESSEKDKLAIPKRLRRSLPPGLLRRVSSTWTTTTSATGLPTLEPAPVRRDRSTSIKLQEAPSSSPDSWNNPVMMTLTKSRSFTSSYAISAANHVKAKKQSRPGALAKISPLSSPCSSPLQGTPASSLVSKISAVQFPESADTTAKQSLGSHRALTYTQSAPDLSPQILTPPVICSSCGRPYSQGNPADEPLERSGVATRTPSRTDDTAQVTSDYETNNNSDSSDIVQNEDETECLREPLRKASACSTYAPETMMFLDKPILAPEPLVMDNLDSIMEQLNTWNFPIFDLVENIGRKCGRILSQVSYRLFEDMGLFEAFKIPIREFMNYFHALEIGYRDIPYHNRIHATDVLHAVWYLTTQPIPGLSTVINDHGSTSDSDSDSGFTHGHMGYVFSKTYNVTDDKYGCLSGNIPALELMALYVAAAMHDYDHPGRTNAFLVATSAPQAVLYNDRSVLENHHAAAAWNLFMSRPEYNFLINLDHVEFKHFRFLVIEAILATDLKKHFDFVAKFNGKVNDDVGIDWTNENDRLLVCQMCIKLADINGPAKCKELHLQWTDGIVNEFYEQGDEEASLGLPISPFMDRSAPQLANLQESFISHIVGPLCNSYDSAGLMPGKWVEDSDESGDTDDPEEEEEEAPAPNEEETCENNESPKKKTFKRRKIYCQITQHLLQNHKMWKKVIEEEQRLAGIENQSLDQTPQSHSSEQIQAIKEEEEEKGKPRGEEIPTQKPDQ

| IC50 [1] | IC50 ([2]; Homo sapiens, MDA-MB-436, […]) | IC50 [3] | IC50 [4] | IC50 [2] | SMILES |
| --- | --- | --- | --- | --- | --- |
| 1460 nM |  |  |  |  | CNC(=O)c1ccc(N2CCN(Cc3ccc4c(c3)[nH]c(=O)c3occc34)CC2)c(C)n1 [Example 2, 7-((4-(2-methyl-6-(methylcarbamoyl)pyridin-3-yl)piperazin-1-yl)methyl)furo[2,3-c]quinolin-4(5H)-one] |
| 580 nM |  |  |  |  | CNC(=O)c1ccc(N2CCN(Cc3ccc4c(c3)[nH]c(=O)c3ccoc34)CC2)c(C)n1 [Example 6, 7-((4-(2-methyl-6-(methylcarbamoyl)pyridin-3-yl)piperazin-1-yl)methyl)furo[3,2-c]quinolin-4(5H)-one] |
| 690 nM | 2.48 nM |  |  |  | CNC(=O)c1ccc(N2CCN(Cc3cc(F)c4c(c3)[nH]c(=O)c3occc34)CC2)c(C)n1 [Example 40, 9-fluoro-7-((4-(2-methyl-6-(methylcarbamoyl)pyridin-3-yl)piperazin-1-yl)methyl)furo[2,3-c]quinolin-4(5H)-one] |
| 8570 nM | 5.86 nM | 5580 nM | 0.39 nM |  | CNC(=O)c1ccc(N2CCN(Cc3ccc4c([nH]c(=O)c5ccoc54)c3F)CC2)c(C)n1 [Example 43, 7-((4-(2-methyl-6-(methylcarbamoyl)pyridin-3-yl)piperazin-1-yl)methyl)-6-fluoro-furo[3,2-c]quinolin-4(5H)-one] |
| 16500 nM | 3.85 nM | 898 nM | 0.41 nM |  | CNC(=O)c1ccc(N2CCN(Cc3ccc4c([nH]c(=O)c5ccoc54)c3F)CC2)c(F)n1 [Example 44, 7-((4-(2-fluoro-6-(methylcarbamoyl)pyridin-3-yl)piperazin-1-yl)methyl)-6-fluoro-furo[3,2-c]quinolin-4(5H)-one] |
| > 30000 nM | 16.5 nM | 194 nM | 0.95 nM |  | CNC(=O)c1ccc(N2CCN(Cc3ccc4c([nH]c(=O)c5cn[nH]c54)c3F)CC2)c(F)n1 [Example 46, 7-((4-(2-fluoro-6-(methylcarbamoyl)pyridin-3-yl)piperazin-1-yl)methyl)-6-fluoro-1,5-dihydro-4H-pyrazolo[4,3-c]quinolin-4-one] |
| > 30000 nM | 4.58 nM | 1980 nM | 1.76 nM |  | CNC(=O)c1ccc(N2CCN(Cc3ccc4c([nH]c(=O)n5cccc45)c3F)CC2)c(C)n1 [Example 48, 8-((4-(2-methyl-6-(methylcarbamoyl)pyridin-3-yl)piperazin-1-yl)methyl)-7-fluoropyrrolo[1,2-c]quinazolin-5(6H)-one] |
| 880 nM | 1.04 nM |  |  |  | CNC(=O)c1ccc(N2CCN(Cc3ccc4c(c3)[nH]c(=O)c3c(F)cnn34)CC2)c(F)n1 [Example 49, 7-((4-(2-fluoro-6-(methylcarbamoyl)pyridin-3-yl)piperazin-1-yl)methyl)-3-fluoropyrazolo[1,5-a]quinoxalin-4(5H)-one] |
| > 30000 nM | 10.6 nM | > 10000 nM | 1.95 nM |  | CNC(=O)c1ccc(N2CCN(Cc3ccc4c([nH]c(=O)c5c(C)cnn54)c3F)CC2)c(C)n1 [Example 57, 7-((4-(2-methyl-6-(methylcarbamoyl)pyridin-3-yl)piperazin-1-yl)methyl)-6-fluoro-3-methylpyrazolo[1,5-a]quinoxalin-4(5H)-one] |
| > 30000 nM | 2.99 nM | > 10000 nM | 1.38 nM |  | CNC(=O)c1ccc(N2CCN(Cc3ccc4c([nH]c(=O)c5c(C)cnn54)c3F)CC2)c(F)n1 [Example 58, 7-((4-(2-fluoro-6-(methylcarbamoyl)pyridin-3-yl)piperazin-1-yl)methyl)-6-fluoro-3-methylpyrazolo[1,5-a]quinoxalin-4(5H)-one] |
| > 30000 nM | 1.41 nM |  |  |  | CNC(=O)c1ccc(N2CCN(Cc3ccc4c([nH]c(=O)c5c(Cl)cnn54)c3F)CC2)c(F)n1 [Example 60, 7-((4-(2-fluoro-6-(methylcarbamoyl)pyridin-3-yl)piperazin-1-yl)methyl)-6-fluoro-3-chloro-pyrazolo[1,5-a]quinoxalin-4(5H)-one] |
| 16600 nM | 3.4 nM | 5000 nM | 1.72 nM |  | CCNC(=O)c1ccc(N2CCN(Cc3ccc4c([nH]c(=O)c5occc54)c3F)CC2)c(F)n1 [Example 66, 7-((4-(2-fluoro-6-(ethylcarbamoyl)pyridin-3-yl)piperazin-1-yl)methyl)-6-fluorofuro[2,3-c]quinolin-4(5H)-one] |
| 13900 nM | 6.56 nM |  |  |  | O=C(NC1CC1)c1ccc(N2CCN(Cc3ccc4c([nH]c(=O)c5occc54)c3F)CC2)c(F)n1 [Example 67, 7-((4-(2-fluoro-6-(cyclopropylcarbamoyl)pyridin-3-yl)piperazin-1-yl)methyl)-6-fluorofuro[2,3-c]quinolin-4(5H)-one] |
| 22000 nM | 4.72 nM | 1870 nM | 0.52 nM |  | CNC(=O)c1ccc(N2CCN(Cc3ccc4c([nH]c(=O)c5occc54)c3F)CC2)c(Cl)n1 [Example 68, 7-((4-(2-chloro-6-(methylcarbamoyl)pyridin-3-yl)piperazin-1-yl)methyl)-6-fluorofuro[2,3-c]quinolin-4(5H)-one] |
| > 30000 nM | 3.48 nM | 199 nM | 0.44 nM |  | CNC(=O)c1ccc(N2CCN(Cc3ccc4c([nH]c(=O)c5cnn(C)c54)c3F)CC2)c(F)n1 [Example 92, 6-fluoro-7-((4-(2-fluoro-6-(methylcarbamoyl)pyridin-3-yl)piperazin-1-yl)methyl)-1-methyl-1,5-dihydro-4H-pyrazolo[4,3-c]quinolin-4-one] |
| > 30000 nM | 3.76 nM |  |  |  | CNC(=O)c1ccc(N2CCN(Cc3ccc4c([nH]c(=O)c5nn(C)cc54)c3F)CC2)c(F)n1 [Example 93, 6-fluoro-7-((4-(2-fluoro-6-(methylcarbamoyl)pyridin-3-yl)piperazin-1-yl)methyl)-2-methyl-2,5-dihydro-4H-pyrazolo[3,4-c]quinolin-4-one] |
| > 30000 nM | 5.5 nM | 1330 nM | 1.89 nM |  | CNC(=O)c1ccc(N2CCN(Cc3cc4[nH]c(=O)c5occc5c4cc3F)CC2)c(F)n1 [Example 102, 7-((4-(2-fluoro-6-(methylcarbamoyl)pyridin-3-yl)piperazin-1-yl)methyl)-8-fluorofuro[2,3-c]quinolin-4(5H)-one] |
| 1300 nM | 0.58 nM | 158 nM | 0.26 nM |  | CNC(=O)c1ccc(N2CCN(Cc3ccc4c(c3)[nH]c(=O)c3occc34)CC2)c(F)n1 [Example 112, 7-((4-(2-fluoro-6-(methylcarbamoyl)pyridin-3-yl)piperazin-1-yl)methyl)furo[2,3-c]quinolin-4(5H)-one] |
| 13800 nM | 3.41 nM | 340 nM | 0.47 nM |  | CNC(=O)c1ccc(N2CCN(Cc3ccc4c([nH]c(=O)c5cocc54)c3F)CC2)c(F)n1 [Example 115, 7-((4-(2-fluoro-6-(methylcarbamoyl)pyridin-3-yl)piperazin-1-yl)methyl)-6-fluorofuro[3,4-c]quinolin-4(5H)-one] |
| 10500 nM | 1.72 nM | 2820 nM | 1.06 nM |  | CNC(=O)c1ccc(N2CCN(Cc3ccc4c([nH]c(=O)c5c(F)cnn54)c3F)CC2)c(C)n1 [Example 121, 7-((4-(2-methyl-6-(methylcarbamoyl)pyridin-3-yl)piperazin-1-yl)methyl)-3,6-difluoropyrazolo[1,5-a]quinoxalin-4(5H)-one] |
| > 30000 nM |  | 462 nM | 0.53 nM | 1.32 nM | CNC(=O)c1ccc(N2CCN(Cc3ccc4c([nH]c(=O)c5c(F)cnn54)c3F)CC2)c(F)n1 [Example 122, 7-((4-(2-fluoro-6-(methylcarbamoyl)pyridin-3-yl)piperazin-1-yl)methyl)-3,6-difluoropyrazolo[1,5-a]quinoxalin-4(5H)-one] |
| > 25000 nM | 4.5 nM | 731 nM | 0.48 nM |  | Cc1cnn2c1c(=O)[nH]c1c(F)c(CN3CCN(c4ccc(C(=O)NC5CC5)nc4F)CC3)ccc12 [Example 126, 7-((4-(2-fluoro-6-(cyclopropylcarbamoyl)pyridin-3-yl)piperazin-1-yl)methyl)-6-fluoro-3-methylpyrazolo[1,5-a]quinoxalin-4(5H)-one] |
| > 30000 nM | 3.12 nM |  |  |  | CNC(=O)c1ccc(N2CCN(Cc3ccc4c([nH]c(=O)c5c(C)cnn54)c3F)CC2)c(Cl)n1 [Example 131, 7-((4-(2-chloro-6-(methylcarbamoyl)pyridin-3-yl)piperazin-1-yl)methyl)-6-fluoro-3-methylpyrazolo[1,5-a]quinoxalin-4(5H)-one] |
| > 30000 nM | 3.91 nM |  |  |  | [2H]C([2H])([2H])NC(=O)c1ccc(N2CCN(Cc3ccc4c([nH]c(=O)c5c(C)cnn54)c3F)CC2)c(F)n1 [Example 159, 6-fluoro-7-((4-(2-fluoro-6-((methyl-d3)carbamoyl)pyridin-3-yl)piperazin-1-yl)methyl)-3-methylpyrazolo[1,5-a]quinoxalin-4(5H)-one] |
| > 30000 nM | 5.58 nM |  |  |  | CNC(=O)c1ccc(N2CCN(Cc3ccc4c([nH]c(=O)c5c(F)cnn54)c3Cl)CC2)c(F)n1 [Example 192, 3-fluoro-7-((4-(2-fluoro-6-(methylcarbamoyl)pyridin-3-yl)piperazin-1-yl)methyl)-6-chloropyrazolo[1,5-a]quinoxalin-4(5H)-one] |
|  | 12.1 nM | > 10000 nM | 0.68 nM |  | CNC(=O)c1ccc(N2CCN(C(C)c3ccc4c([nH]c(=O)c5c(C)cnn54)c3F)CC2)c(F)n1 (stereo not drawn) [Example 204, 6-fluoro-7-(1-(4-(2-fluoro-6-(methylcarbamoyl)pyridin-3-yl)piperazin-1-yl)ethyl)-3-methylpyrazolo[1,5-a]quinoxalin-4(5H)-one] |
